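Results reflect a 48-hour exposure of cells in 96-well plates to compound at five concentrations. GI50 marks 50% less growth. TGI: total growth inhibition.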
Assays:
Assay in all cases: NCI-60 cell line screen, 48 h
[1] = tested on: 786-0 renal
[2] = tested on: CAKI-1 renal
[3] = tested on: HCC-2998 colon
[4] = tested on: HOP-62 NSCLC
[5] = tested on: MALME-3M melanoma
[6] = tested on: RXF 393 renal
[7] = tested on: SF-295 CNS
[8] = tested on: SK-MEL-2 melanoma
[9] = tested on: SK-MEL-28 melanoma
[10] = tested on: A498 renal

Row | Structure (SMILES) | TGI [1] [µM] | TGI [2] [µM] | TGI [3] [µM] | TGI [4] [µM] | TGI [5] [µM] | TGI [6] [µM] | TGI [7] [µM] | TGI [8] [µM] | TGI [9] [µM] | TGI [10] [µM] | GI50 [10] [µM] | GI50 [2] [µM] | GI50 [3] [µM] | GI50 [4] [µM] | GI50 [5] [µM] | GI50 [6] [µM] | GI50 [7] [µM] | GI50 [8] [µM] | GI50 [9] [µM]
1 | COc1ccc(/C=C(\C#N)c2nc(-c3cc4ccccc4oc3=O)cs2)cc1 | 41.4 | > 100 | > 100 | 29.5 | 91.3 | 45.4 | 55.9 | > 100 | > 100 | – | – | – | – | – | – | – | – | – | –
2 | Cn1cnc([N+](=O)[O-])c1Sc1nncc2[nH]cnc12 | > 100 | > 100 | > 100 | > 100 | > 100 | – | > 100 | > 100 | > 100 | > 100 | – | – | – | – | – | – | – | – | –
3 | CN(NC(=O)/C(=C/C=C/c1ccccc1)NC(=O)c1ccccc1)C1=C(Cl)C(=O)[N+](c2ccccc2)=CC1 | 39.2 | > 100 | – | 51.5 | > 100 | 53.8 | 81.5 | 70.9 | 37.1 | > 100 | – | – | – | – | – | – | – | – | –
4 | CC(=O)Oc1ccc(-c2c(OC(C)=O)c(OC(C)=O)c(-c3ccc(OC(C)=O)c(OC(C)=O)c3)c(OC(C)=O)c2OC(C)=O)cc1 | 30.6 | 51.6 | – | – | 30.3 | 36.1 | 21.3 | 29.9 | 28.4 | > 100 | – | – | – | – | – | – | – | – | –
5 | CC(=O)Nc1oc(C)nc1C#N | > 100 | > 100 | – | > 100 | – | > 100 | – | > 100 | > 100 | > 100 | – | – | – | – | – | – | – | – | –
6 | CCn1c2ccccc2c2cc(NC(=O)c3c(C)[nH]c(=O)[nH]c3=S)ccc21 | – | > 100 | > 100 | > 100 | > 100 | > 100 | > 100 | > 100 | > 100 | > 100 | – | – | – | – | – | – | – | – | –
7 | CCCCN=C(OC1C=CCCC1)SC (stereo not given) | > 100 | – | > 100 | > 100 | > 100 | – | > 100 | – | > 100 | > 100 | – | – | – | – | – | – | – | – | –
8 | CC1=C(C(=O)OC(C)C)C(c2cccc([N+](=O)[O-])c2)C(C(=O)OC(CO[N+](=O)[O-])CO[N+](=O)[O-])=C(C)N1 (stereo not given) | > 100 | > 100 | 18.3 | 16.5 | > 100 | 58.1 | 0.991 | 5.61 | 33.7 | – | – | – | – | – | – | – | – | – | –
9 | CCOC(=O)Cn1c(C)nc2nn(Cc3ccccc3)cc2c1=O | > 100 | – | > 100 | > 100 | > 100 | > 100 | > 100 | > 100 | > 100 | > 100 | – | – | – | – | – | – | – | – | –
10 | Cc1cc2nnn(C3CCCO3)c2cc1C (stereo not given) | > 100 | > 100 | > 100 | > 100 | > 100 | > 100 | > 100 | > 100 | – | > 100 | – | – | – | – | – | – | – | – | –
11 | O.O=[Se](=O)(O)O.[NH-]C1CCCCC1[NH-].[Pt+2] (stereo not given) | – | 78.6 | > 100 | > 100 | 44 | 30.5 | > 92.1 | > 100 | > 100 | 97 | 19.4 | 4.56 | > 46.1 | 37.5 | 8.23 | 4.63 | 15.4 | 22.9 | 10.1
12 | O=C(c1ccccc1)c1ccc2c(c1)N=C(c1ccc(Cl)c(Cl)c1)CC(c1ccc3ccccc3c1)N2 (stereo not given) | – | > 100 | > 100 | > 100 | – | > 100 | > 100 | > 100 | > 100 | > 100 | – | – | – | – | – | – | – | – | –
13 | CC(C)(C)OC(=O)N[C@@H](Cc1ccccc1)C(=O)N1CC[C@@H](C(=O)N2[C@H]3CC4CC[C@@]3(CS2(=O)=O)C4(C)C)N1 | > 100 | > 100 | > 100 | > 100 | – | > 100 | – | > 100 | > 100 | > 100 | – | – | – | – | – | – | – | – | –
14 | Nc1ncc(Cc2nn3c(COc4ccc(Cl)cc4)nnc3s2)s1 | > 100 | > 100 | > 100 | > 100 | > 100 | > 100 | > 100 | > 100 | > 100 | – | – | – | – | – | – | – | – | – | –
15 | COc1cccc2c1C(=O)c1c(O)c3c(c(O)c1C2=O)C[C@](O)(C(=O)CO)CC3OC1CC(N)C(OC2CCCCO2)C(C)O1 (stereo not given in full) | – | 18.2 | 3.25 | 1.7 | 0.705 | 1.87 | 0.672 | 2.43 | 3.38 | 0.766 | – | – | – | – | – | – | – | – | –
16 | Cn1c(=O)c2[nH]cnc2n(C)c1=O | > 100 | > 100 | > 100 | > 100 | > 100 | – | – | > 100 | > 100 | – | – | – | – | – | – | – | – | – | –
17 | Cc1cn(C2CC(O)C(Cn3cc(Cn4nc(Br)c(=O)[nH]c4=O)nn3)O2)c(=O)[nH]c1=O (stereo not given) | – | > 100 | > 100 | > 100 | > 100 | > 100 | > 100 | > 100 | > 100 | > 100 | – | – | – | – | – | – | – | – | –
18 | COc1cccc(C2c3cc4c(cc3OC(N3CCOCC3)C2C)OCO4)c1 (stereo not given) | – | – | – | 60.8 | > 100 | – | 35.7 | 83.6 | – | – | – | – | – | – | – | – | – | – | –
19 | Cc1cccc(-c2cc(=O)c3c(C)ccnc3[nH]2)c1 | > 100 | > 100 | 11.1 | > 100 | – | > 100 | – | > 100 | > 100 | > 100 | – | – | – | – | – | – | – | – | –
20 | Cc1cccc(/C=N/NC(=S)NC(C)(C)C)n1 | > 100 | > 100 | > 100 | > 100 | > 100 | – | > 100 | > 100 | > 100 | > 100 | – | – | – | – | – | – | – | – | –
21 | CCCNC(=O)Cn1c(-c2ccccc2)cc2ccccc21 | > 100 | > 100 | > 100 | > 100 | > 100 | 57.3 | > 100 | > 100 | > 100 | – | – | – | – | – | – | – | – | – | –
22 | C=CC(=O)N1C/C(=C\c2ccc(F)cc2)C(=O)/C(=C/c2ccc(F)cc2)C1 | 0.346 | 1.7 | 1.15 | 1.41 | 2.41 | 0.556 | 1.2 | 2.69 | – | 1.48 | – | – | – | – | – | – | – | – | –
23 | O=c1oc2ccccc2cc1-c1nc2ccccc2s1 | 10.6 | 15.6 | > 100 | 17.8 | 9.2 | 24.2 | – | 60.2 | > 66 | 29.4 | – | – | – | – | – | – | – | – | –
24 | CCSc1nn(-c2c3ccccc3nc3ccccc23)c(=S)s1 | > 100 | > 100 | > 100 | > 100 | – | > 100 | > 100 | > 100 | > 100 | > 100 | – | – | – | – | – | – | – | – | –
